Measurements published in BindingDB's records for doi:10.1016/j.bmcl.2014.05.074 (Seoul National University, 2014).

Target: Transient receptor potential cation channel subfamily V member 1 (Homo sapiens, UniProt Q8NER1)
Experiment: Antagonist activity at human TRPV1 expressed in CHO cells assessed as inhibition of capsaicin-induced increase in intracellular Ca2+ level by FLIPR assay

Transient receptor potential cation channel subfamily V member 1, sequence (Q8NER1 whole entry): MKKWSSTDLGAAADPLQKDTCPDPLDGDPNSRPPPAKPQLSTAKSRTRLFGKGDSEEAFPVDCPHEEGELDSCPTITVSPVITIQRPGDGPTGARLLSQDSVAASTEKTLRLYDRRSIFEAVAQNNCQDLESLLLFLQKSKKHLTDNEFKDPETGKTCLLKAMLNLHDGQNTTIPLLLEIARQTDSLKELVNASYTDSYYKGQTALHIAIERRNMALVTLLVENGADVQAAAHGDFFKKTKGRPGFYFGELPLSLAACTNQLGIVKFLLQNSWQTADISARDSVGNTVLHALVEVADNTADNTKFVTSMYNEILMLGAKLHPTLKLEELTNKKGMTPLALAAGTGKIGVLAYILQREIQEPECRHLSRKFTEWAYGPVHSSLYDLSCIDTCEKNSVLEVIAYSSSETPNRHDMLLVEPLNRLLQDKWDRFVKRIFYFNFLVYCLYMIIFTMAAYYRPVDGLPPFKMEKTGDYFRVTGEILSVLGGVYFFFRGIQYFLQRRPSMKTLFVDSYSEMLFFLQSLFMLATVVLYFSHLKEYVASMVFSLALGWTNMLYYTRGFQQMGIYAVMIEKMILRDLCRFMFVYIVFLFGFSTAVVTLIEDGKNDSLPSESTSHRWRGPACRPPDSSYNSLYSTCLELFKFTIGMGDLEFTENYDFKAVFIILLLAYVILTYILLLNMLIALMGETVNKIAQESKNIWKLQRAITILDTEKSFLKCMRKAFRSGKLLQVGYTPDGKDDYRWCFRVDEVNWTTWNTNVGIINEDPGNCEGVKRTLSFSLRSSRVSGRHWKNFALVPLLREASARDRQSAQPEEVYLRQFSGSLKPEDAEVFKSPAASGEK

Ki [nM]	Structure (SMILES)
0.1	CCC1CC=C(c2nc(C(F)(F)F)ccc2CNC(=O)C(C)c2ccc(NS(C)(=O)=O)c(F)c2)CC1 (stereo not drawn)
0.1	CC(C(=O)NCc1ccc(C(F)(F)F)nc1C1=C[C@H](C)CCC1)c1ccc(NS(C)(=O)=O)c(F)c1 (stereo partly drawn)
0.3	CC1CC=C(c2nc(C(F)(F)F)ccc2CNC(=O)C(C)c2ccc(NS(C)(=O)=O)c(F)c2)CC1 (stereo not drawn)
